Experimental data reported in publication PMC7069776 (Journal of medicinal chemistry, 2019).

Key:
[1] = test system: C. neoformans (Strain H99); conditions: H99, RPMI 1640, 37 °C (Fig. 4A)
[2] = target: Hsp90 (Candida albicans, UniProt P46598); assay: biochemical
[3] = test system: C. albicans clinical isolate (CaCi2); assay: Antifungal sensitivity testing; type: cell-based; conditions: CaCi2, cultures spotted on compound-free YPD agar, 30 °C, 24 h
[4] = test system: C. albicans Hsp90 NBD; conditions: cited from earlier work

Sequence of Hsp90 (P46598 whole entry): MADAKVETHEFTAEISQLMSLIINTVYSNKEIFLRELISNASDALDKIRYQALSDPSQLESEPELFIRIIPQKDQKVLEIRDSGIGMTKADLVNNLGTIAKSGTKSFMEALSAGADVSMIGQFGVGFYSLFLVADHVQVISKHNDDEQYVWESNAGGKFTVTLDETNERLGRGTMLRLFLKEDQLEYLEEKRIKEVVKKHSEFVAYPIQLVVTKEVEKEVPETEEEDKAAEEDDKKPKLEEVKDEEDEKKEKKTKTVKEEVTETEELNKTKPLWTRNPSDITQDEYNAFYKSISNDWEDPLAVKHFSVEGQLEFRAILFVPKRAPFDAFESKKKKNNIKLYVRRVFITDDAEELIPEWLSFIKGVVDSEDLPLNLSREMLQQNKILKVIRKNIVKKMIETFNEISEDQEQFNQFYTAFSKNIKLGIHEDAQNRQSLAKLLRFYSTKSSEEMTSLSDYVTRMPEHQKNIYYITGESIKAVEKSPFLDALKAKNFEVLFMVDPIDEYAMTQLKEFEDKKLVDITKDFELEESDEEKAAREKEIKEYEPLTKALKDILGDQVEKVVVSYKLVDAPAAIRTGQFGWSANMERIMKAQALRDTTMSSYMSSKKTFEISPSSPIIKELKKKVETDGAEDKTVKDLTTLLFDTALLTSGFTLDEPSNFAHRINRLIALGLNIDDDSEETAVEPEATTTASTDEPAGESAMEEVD

SMILES | EC50 [2] [µM] | fungicidal activity in combination with fluconazole [3] | other results
Cc1ccccc1-c1cc(Nc2cc(O)cc(O)c2C(=O)N2Cc3ccccc3C2)n(C)n1 [Compound 106, 4-(2,3-Dihydro-1H-isoindole-2-carbonyl)-5-((1-methyl-3-(2-methylphenyl)-1H-pyrazol-5-yl)amino)benzene-1,3-diol] |  |  | concentration inhibiting growth of C. neoformans [1]: below 10 μM
COc1ccc(Cn2nc(-c3ccccc3)cc2Nc2cc(O)cc(O)c2C(=O)N(C)CC2CC2)cc1 [Compound 31, N-(Cyclopropylmethyl)-2,4-dihydroxy-6-((1-((4-methoxyphenyl)methyl)-3-phenyl-1H-pyrazol-5-yl)amino)-N-methylbenzamide] | > 9 |  | 
CCN(CC)C(=O)c1c(O)cc(O)cc1Nc1cc(-c2ccccc2)nn1Cc1ccc(OC)cc1 [Compound 39, N,N-Diethyl-2,4-dihydroxy-6-((1-((4-methoxyphenyl)methyl)-3-phenyl-1H-pyrazol-5-yl)amino)benzamide] | > 10 |  | 
Cn1nc(-c2ccc(OC(F)(F)F)cc2)cc1Nc1cc(O)cc(O)c1C(=O)N1Cc2ccccc2C1 [Compound 130, 4-(2,3-Dihydro-1H-isoindole-2-carbonyl)-5-((1-methyl-3-(4-(trifluoromethoxy)phenyl)-1H-pyrazol-5-yl)amino)benzene-1,3-diol] |  | fungicidal | 
Cc1cc(Nc2cc(O)cc(O)c2C(=O)N2Cc3ccccc3C2)n(Cc2ccccc2Cl)n1 [Compound 89, 5-((1-((2-Chlorophenyl)methyl)-3-methyl-1H-pyrazol-5-yl)amino)-4-(2,3-dihydro-1H-isoindole-2-carbonyl)benzene-1,3-diol] |  | fungicidal activity | 
COc1ccc(Cn2ncc(C)c2Nc2cc(O)cc(O)c2C(=O)N2Cc3ccccc3C2)cc1 [Compound 41, 4-(2,3-Dihydro-1H-isoindole-2-carbonyl)-5-((1-((4-methoxyphenyl)methyl)-4-methyl-1H-pyrazol-5-yl)amino)benzene-1,3-diol] |  | fungicidal activity | 
COc1ccc(Cn2nc(-c3ccccc3)cc2Nc2cc(O)cc(O)c2C(=O)N2Cc3ccccc3C2)cc1 [Compound 21, 4-(2,3-dihydro-1H-isoindole-2-carbonyl)-5-((1-((4-methoxyphenyl)methyl)-3-phenyl-1H-pyrazol-5-yl)amino)benzene-1,3-diol] |  | fungicidal activity | 
COc1ccc(Cn2nc(C)cc2Nc2cc(O)cc(O)c2C(=O)N(C)Cc2ccccc2)cc1 [Compound 37, N-Benzyl-2,4-dihydroxy-6-((1-((4-methoxyphenyl)methyl)-3-methyl-1H-pyrazol-5-yl)amino)-N-methylbenzamide] | > 6 |  | 
COc1ccc(Cn2nc(C)cc2Nc2cc(O)cc(O)c2C(=O)N(C)CC2CC2)cc1 [Compound 30, N-(Cyclopropylmethyl)-2,4-dihydroxy-6-((1-((4-methoxyphenyl)methyl)-3-methyl-1H-pyrazol-5-yl)amino)-N-methylbenzamide] | > 9 |  | 
COc1ccc(CO\N=C2/C=C/C=C\[C@H]3O[C@@H]3C[C@@H](C)OC(=O)c3c(O)cc(O)cc3C2)cc1 [CMLD013075] |  |  | binding selectivity for the C. albicans Hsp90 NBD compared to the human ortholog [4]: > 25 fold
